PMC5725709, “PufQ regulates porphyrin flux at the haem/bacteriochlorophyll branchpoint of tetrapyrrole biosynthesis via interactions with ferrochelatase” (Molecular Microbiology, 2017)

Target: T1, FeCH (ferrochelatase) (Cereibacter sphaeroides, UniProt Q3IYK5, Y58H)
T1 construct: gene HemH; His-tagged, pET14b, E. coli Rosetta pLysS
Assay: spectrophotometric ferrochelatase assay (DIX consumption at […] nm, isosbestic reference […] nm)
Type: biochemical
Settings: 1 µM FeCH, 30 µM DIX, 100 µM CoCl2, 25 mM Tris pH 7.4, 0.15% Tween 80; active, substantially lower than wild type

T1 sequence (Q3IYK5 entry or part of it Y58H): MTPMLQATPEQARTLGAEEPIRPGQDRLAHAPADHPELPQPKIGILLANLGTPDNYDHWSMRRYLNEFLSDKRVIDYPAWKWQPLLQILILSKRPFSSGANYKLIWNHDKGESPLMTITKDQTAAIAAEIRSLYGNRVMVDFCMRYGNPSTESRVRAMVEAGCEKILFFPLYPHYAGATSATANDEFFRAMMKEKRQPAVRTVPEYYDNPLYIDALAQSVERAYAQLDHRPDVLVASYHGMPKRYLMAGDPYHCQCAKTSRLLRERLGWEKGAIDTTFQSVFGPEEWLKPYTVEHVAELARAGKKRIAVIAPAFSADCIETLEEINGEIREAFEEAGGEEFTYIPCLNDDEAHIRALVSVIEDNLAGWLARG

With `CC1=C(CCC(=O)O)c2cc3nc(cc4[nH]c(cc4C)cc4[nH]c(cc1n2)cc4C)C(C)=C3CCC(=O)O` [deuteroporphyrin IX] the “spectrophotometric ferrochelatase assay (DIX consumption at 496 nm, isosbestic r)” value was “the ΔpufQ PSvar version of the FeCH protein is active”.
